Columns and labels:
VR1 (human) = molecular target: T1, VR1 (human) (Homo sapiens, UniProt Q8NER1); experiment: Functional FLIPR Ca2+ inflow assay on VR1 (human), CHO K1 cells stably transfected with the VR1 gene; type: cell-based; conditions: test compound 10 μM; for inhibition at 10 µM / activation at 10 µM: CHO-K1; for inhibition at 10 µM / VR1 (human) (% inhibition compared to 10 μM CP): then 100 nM capsaicin after 5 min, relative to maximum inhibition with 10 μM capsaicin; for inhibition at 10 µM: read-out: VR1 (human) (% inhibition compared to 10 μM CP); for activation at 10 µM / VR1 (human) (% stimulation compared to 10 μM CP): Ca2+ signal relative to 10 μM capsaicin (CP); for activation at 10 µM: read-out: VR1 (human) (% stimulation compared to 10 μM CP)
T1 construct: expressed in transfected cells; host or cells: CHO K1 cells (ECACC)
T1 sequence (Q8NER1 whole entry): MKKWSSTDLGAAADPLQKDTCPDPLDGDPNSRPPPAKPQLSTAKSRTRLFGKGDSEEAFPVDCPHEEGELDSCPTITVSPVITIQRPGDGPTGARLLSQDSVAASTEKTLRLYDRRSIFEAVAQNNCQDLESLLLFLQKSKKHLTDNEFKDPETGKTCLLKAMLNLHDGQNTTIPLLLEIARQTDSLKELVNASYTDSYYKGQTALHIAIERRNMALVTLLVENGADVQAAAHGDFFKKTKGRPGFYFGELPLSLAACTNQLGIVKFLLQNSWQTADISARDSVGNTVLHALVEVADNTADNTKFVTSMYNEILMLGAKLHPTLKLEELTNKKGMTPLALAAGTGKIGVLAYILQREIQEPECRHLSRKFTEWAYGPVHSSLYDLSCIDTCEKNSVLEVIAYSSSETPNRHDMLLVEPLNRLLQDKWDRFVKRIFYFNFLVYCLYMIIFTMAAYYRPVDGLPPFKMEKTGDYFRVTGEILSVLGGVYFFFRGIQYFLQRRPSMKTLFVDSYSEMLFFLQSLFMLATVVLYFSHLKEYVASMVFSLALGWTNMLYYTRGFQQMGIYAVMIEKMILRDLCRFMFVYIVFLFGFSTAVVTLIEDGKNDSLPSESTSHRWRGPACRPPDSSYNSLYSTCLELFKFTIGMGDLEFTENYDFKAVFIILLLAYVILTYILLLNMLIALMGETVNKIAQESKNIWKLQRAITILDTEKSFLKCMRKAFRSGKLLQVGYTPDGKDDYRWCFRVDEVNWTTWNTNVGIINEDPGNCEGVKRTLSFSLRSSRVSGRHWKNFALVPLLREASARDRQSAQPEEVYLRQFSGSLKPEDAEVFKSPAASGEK
Text: II. Functional Testing Carried Out on the Vanilloid Receptor (VR1)
The agonistic or antagonistic effect of the substances to be tested can also be determined on the vanilloid receptor (VR1) using the following assay. According to this assay, the Ca^2+ inflow is quantified through the channel using a Ca^2+-sensitive dye (type Fluo-4, Molecular Probes Europe BV, Leiden, Netherlands) in a fluorescent imaging plate reader (FLIPR, Molecular Devices, Sunnyvale, USA).
Chinese hamster ovary cells (CHO K1 cells, European Collection of Cell Cultures (ECACC) United Kingdom) were stably transfected with the VR1 gene. For functional testing, these cells were plated out on poly-D-lysine-coated black 96 well plates having a clear base (BD Biosciences, Heidelberg, Germany) at a density of 25,000 cells/well. The cells were incubated overnight at 37° C. and 5% CO2 in a culture medium (Ham's F12 nutrient mixture, 10% by volume of FCS (foetal calf serum), 18 μg/ml L-proline). The next day the cells were incubated with Fluo-4 (Fluo-4 2 μM, 0.01% by volume of Pluronic F127, Molecular Probes in HBSS (Hank's buffered saline solution), Gibco Invitrogen GmbH, Karlsruhe, Germany) for 30 minutes at 37° C. Subsequently, the plates were washed three times with HBSS buffer and after further incubation for 15 minutes at room temperature used for Ca^2+ measurement in a FLIPR assay. The Ca^2+-dependent fluorescence was measured before and after the addition of the substances to be tested (λex wavelength=488 nm, λem=540 nm). Quantification was carried out by measuring the highest fluorescence intensity (FC, Fluorescence Counts) over time.
The FLIPR protocol consists of 2 substance additions. First the compounds to be tested (10 μM) were pipetted onto the cells and the Ca^2+ inflow was compared with the control (capsaicin 10 μM) (% activation based on the Ca^2+ signal after the addition of 10 μM capsaicin). After 5 minutes' incubation, 100 nM of capsaicin were administered and the Ca^2+ inflow was also determined.
Desensitising agonists and antagonists led to suppression of the Ca^2+ inflow. The % inhibition was calculated compared to the maximum achievable inhibition with 10 μM of capsaicin.

VR1 (rat) = molecular target: T2, VR1 (rat) (Rattus norvegicus, UniProt O35433); experiment: Functional FLIPR Ca2+ inflow assay on rat-species vanilloid receptor 1 in rat dorsal root ganglia cells; type: cell-based; conditions: test compound 10 μM; for inhibition at 10 µM / VR1 (rat) (% inhibition compared to 10 μM CP): then 100 nM capsaicin after 5 min, relative to maximum inhibition with 10 μM capsaicin; for inhibition at 10 µM: read-out: VR1 (rat) (% inhibition compared to 10 μM CP); for activation at 10 µM / VR1 (rat) (% stimulation compared to 10 μM CP): Ca2+ signal relative to 10 μM capsaicin (CP); for activation at 10 µM: read-out: VR1 (rat) (% stimulation compared to 10 μM CP)
T2 construct: from tissue; host or cells: primary cells dissociated from rat dorsal root ganglia
T2 sequence (O35433 whole entry): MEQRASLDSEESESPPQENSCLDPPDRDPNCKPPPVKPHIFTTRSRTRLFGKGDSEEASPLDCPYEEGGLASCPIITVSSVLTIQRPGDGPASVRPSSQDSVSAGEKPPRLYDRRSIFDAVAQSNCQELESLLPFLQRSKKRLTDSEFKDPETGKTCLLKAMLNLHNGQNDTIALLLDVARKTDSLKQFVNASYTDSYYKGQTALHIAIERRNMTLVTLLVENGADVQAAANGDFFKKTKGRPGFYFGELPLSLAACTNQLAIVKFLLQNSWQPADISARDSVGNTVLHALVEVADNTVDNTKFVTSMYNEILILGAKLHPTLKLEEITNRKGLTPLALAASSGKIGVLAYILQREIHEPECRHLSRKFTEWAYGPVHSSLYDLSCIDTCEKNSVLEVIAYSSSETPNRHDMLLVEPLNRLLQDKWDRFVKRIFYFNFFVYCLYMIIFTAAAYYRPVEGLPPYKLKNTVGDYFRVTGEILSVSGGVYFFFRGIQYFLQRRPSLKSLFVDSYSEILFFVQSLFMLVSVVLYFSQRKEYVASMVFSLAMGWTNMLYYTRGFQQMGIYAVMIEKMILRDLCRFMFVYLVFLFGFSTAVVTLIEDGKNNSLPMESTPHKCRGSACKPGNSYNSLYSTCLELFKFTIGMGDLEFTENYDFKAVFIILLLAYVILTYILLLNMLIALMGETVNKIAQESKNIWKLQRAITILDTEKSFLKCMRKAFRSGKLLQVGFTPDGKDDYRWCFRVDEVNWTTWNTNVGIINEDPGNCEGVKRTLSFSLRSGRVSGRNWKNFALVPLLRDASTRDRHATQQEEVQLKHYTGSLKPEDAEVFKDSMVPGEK
Text: I. Functional Testing Carried Out on the Vanilloid Receptor 1 (VR1/TRPV1 Receptor)
The agonistic or antagonistic effect of the substances to be tested can be determined on the rat-species vanilloid receptor 1 (VR1/TRPV1) using the following assay. According to this assay, the Ca^2+ inflow is quantified through the receptor channel using a Ca^2+-sensitive dye (type Fluo-4, Molecular Probes Europe BV, Leiden, Netherlands) in a fluorescent imaging plate reader (FLIPR, Molecular Devices, Sunnyvale, USA).
Complete medium: 50 mL HAMS F12 nutrient mixture (Gibco Invitrogen GmbH, Karlsruhe, Germany) with
10% by volume of FCS (foetal calf serum, Gibco Invitrogen GmbH, Karlsruhe, Germany, […]);
2 mM L-glutamine (Sigma, Munich, Germany);
1% by weight of AA solution (antibiotic/antimyotic solution, PAA, Pasching, Austria) and 25 ng/ml NGF medium (2.5 S, Gibco Invitrogen GmbH, Karlsruhe, Germany)
Cell culture plate: Poly-D-lysine-coated, black 96 well plates having a clear base (96 well black/clear plate, BD Biosciences, Heidelberg, Germany) were additionally coated with laminin (Gibco Invitrogen GmbH, Karlsruhe, Germany), the laminin being diluted with PBS (Ca—Mg-free PBS, Gibco Invitrogen GmbH, Karlsruhe, Germany) to a concentration of 100 μg/mL. Aliquots having a laminin concentration of 100 μg/mL were removed and stored at −20° C. The aliquots were diluted with PBS in a ratio of 1:10 to 10 μg/mL laminin and in each case 50 μL of the solution were pipetted into a recess in the cell culture plate. The cell culture plates were incubated for at least two hours at 37° C., the excess solution was removed by suction-filtration and the recesses were each washed twice with PBS. The coated cell culture plates were stored with excess PBS which was not removed until just before the feeding of the cells.
The vertebral column was removed from decapitated rats and placed immediately into cold HBSS buffer (Hank's buffered saline solution, Gibco Invitrogen GmbH, Karlsruhe, Germany), i.e. buffer located in an ice bath, mixed with 1% by volume (percent by volume) of an AA solution (antibiotic/antimyotic solution, PAA, Pasching, Austria). The vertebral column was cut longitudinally and removed together with fasciae from the vertebral canal. Subsequently, the dorsal root ganglia (DRG) were removed and again stored in cold HBSS buffer mixed with 1% by volume of an AA solution. The DRG, from which all blood remnants and spinal nerves had been removed, were transferred in each case to 500 μL of cold type 2 collagenase (PAA, Pasching, Austria) and incubated for 35 minutes at 37° C. After the addition of 2.5% by volume of trypsin (PAA, Pasching, Austria), incubation was continued for 10 minutes at 37° C. After complete incubation, the enzyme solution was carefully pipetted off and 500 μL of complete medium were added to each of the remaining DRG. The DRG were in each case suspended several times, drawn through cannulae No. 1, No. 12 and No. 16 using a syringe and transferred to a 50 mL Falcon tube which was filled up to 15 mL with complete medium. The contents of each Falcon tube was in each case filtered through a 70 μm Falcon filter element and centrifuged for 10 minutes at 1,200 rpm and room temperature. The resulting pellet was in each case taken up in 250 μL of complete medium and the number of cells determined.
The number of cells in the suspension was set to 3×10^5 per mL and 150 μL of this suspension were in each case introduced into a recess in the cell culture plates coated as described hereinbefore. In the incubator the plates were left for two to three days at 37° C., 5% by volume of CO2 and 95% relative humidity. […]

Compound | inhibition at 10 µM (VR1 (human)) | activation at 10 µM (VR1 (human)) | inhibition at 10 µM (VR1 (rat)) | activation at 10 µM (VR1 (rat)) | VR1 (human) (% inhibition compared to 10 μM CP) (VR1 (human)) | VR1 (human) (% stimulation compared to 10 μM CP) (VR1 (human)) | VR1 (rat) (% inhibition compared to 10 μM CP) (VR1 (rat)) | VR1 (rat) (% stimulation compared to 10 μM CP) (VR1 (rat))
CC(C)(C)C1CCC2(CC1)CC(C(=O)Nc1cccc3cnccc13)=NO2 (stereo not shown) [Example 4, 8-tert-butyl-1-oxa-2-azaspiro[4.5]dec-2-ene-3-carboxylic acid isoquinolin-5-ylamide] | 76.3% | -0.33% | 73.7% | -0.54% |  |  |  | 
CC(C)(C)C1CCC2(CC1)CC(C(=O)NCc1ccc(NS(C)(=O)=O)cc1)=NO2 (stereo not drawn) [Example 3, cis-8-tert-butyl-1-oxa-2-azaspiro[4.5]dec-2-ene-3-carboxylic acid-4-methanesulphonylaminobenzylamide] |  |  |  |  | 80.10% | −1.29% | 102.62% | 0.10%
CC(C)(C)[C@H]1CC[C@]2(CC1)CC(C(=O)N1CCN(c3ncccc3C(F)(F)F)CC1)=NO2 [Example 8, trans-(8-tert-butyl-1-oxa-2-azaspiro[4.5]dec-2-en-3-yl)-[4-(3-trifluoromethylpyridin-2-yl)piperazin-1-yl]methanone] |  |  |  |  | 20.73% | 0.22% | 97.15% | 0.57%
CC(C)(C)c1ccc(NC(=O)[C@H]2CC[C@@]3(CC2)CC(c2ccccc2)=NO3)cc1 [Example 51, 3-phenyl-1-oxa-2-azaspiro[4.5]dec-2-ene-8-carboxylic acid-cis-(4-tert-butylphenyl)amide] |  |  |  |  | 25% | 17% | 91% | 73%
CC(C)(C)C1CCC2(CC1)CC(C(=O)NCc1ccc(NS(C)(=O)=O)cc1)=NO2 (stereo not drawn) [Example 2, trans-8-tert-butyl-1-oxa-2-azaspiro[4.5]dec-2-ene-3-carboxylic acid-4-methanesulphonylaminobenzylamide] |  |  |  |  | 58.09% | −0.32% | 100.87% | −15.97%
CC(C)(C)[C@H]1CC[C@@]2(CC1)CC(C(=O)NCc1ccncc1)=NO2 [Example 24, cis-8-tert-butyl-1-oxa-2-azaspiro[4.5]dec-2-ene-3-carboxylic acid (pyridin-4-ylmethyl)amide] |  |  |  |  | 83.01% | 91.72% | 97.79% | 87.96%
CC(C)(C)[C@H]1CC[C@@]2(CC1)CC(C(=O)N1CCN(c3nsnc3Cl)CC1)=NO2 [Example 17, cis-(8-tert-butyl-1-oxa-2-azaspiro[4.5]dec-2-en-3-yl)-[4-(4-chloro-[1,2,5]thiadiazol-3-yl)piperazin-1-yl]methanone] |  |  |  |  | 14.95% | −0.05% | 58.92% | 0.33%
CC(C)(C)c1ccc(NC(=O)C2CCC3(CC2)CC(C(=O)N2CCN(c4ncccc4Cl)CC2)=NO3)cc1 (stereo not shown) [Example 84, N-(4-tert-butylphenyl)-3-(4-(3-chloropyridin-2-yl)piperazin-1-carbonyl)-1-oxa-2-azaspiro[4.5]dec-2-ene-8-carboxamide] | 31% | 33% | 103% | 61% |  |  |  | 
((5R,8R)-8-tert-butyl-1-oxa-2-azaspiro[4.5]dec-2-en-3-yl)(4-(3-chloropyridin-2-yl)-2,6-dimethylpiperazin-1-yl)methanone [Example 58] |  |  |  |  | 67% | 27% | 107% | 46%
CC(C)(C)C1CCC2(CC1)CC(C(=O)Nc1ccc(NS(C)(=O)=O)c(F)c1)=NO2 (stereo not shown) [Example 90, 8-tert-butyl-N-(3-fluoro-4-(methylsulphonamido)phenyl)-1-oxa-2-azaspiro[4.5]dec-2-ene-3-carboxamide] | 34% | 36% | 100% | 43% |  |  |  | 
CC(C)(C)[C@H]1CC[C@]2(CC1)CC(C(=O)N1CCN(c3ccc(O)cc3)CC1)=NO2 [Example 10, trans-(8-tert-butyl-1-oxa-2-azaspiro[4.5]dec-2-en-3-yl)-[4-(4-hydroxyphenyl)piperazin-1-yl]methanone] |  |  |  |  | 17.54% | 2.84% | 22.95% | 8.77%
CC(C)(C)C1CCC2(CC1)CC(C(=O)NCc1ccc(N)cc1)=NO2 (stereo not shown) [Example 1, 8-tert-butyl-1-oxa-2-azaspiro[4.5]dec-2-ene-3-carboxylic acid-4-aminobenzylamide] | 23.6% | 20.7% | 71.3% | 44.7% |  |  |  | 
CC(C)(C)[C@H]1CC[C@@]2(CC1)CC(C(=O)N1CCCN(c3ncccc3Cl)CC1)=NO2 [Example 22, cis-(8-tert-butyl-1-oxa-2-azaspiro[4.5]dec-2-en-3-yl)-[4-(3-chloropyridin-2-yl)-[1,4]diazepan-1-yl]methanone] |  |  |  |  | 0.14% | 0.13% | 16.63% | −0.37%

Source: patent publication US7981883B2, “Substituted spiro-compounds and the use thereof for producing medicaments” (Gruenenthal GmbH, priority 2005, dated 2011)
